In patent US12162890B2 (Novartis AG, priority 2015, dated 2024):

These compounds were tested against HEK293 cells with stable expression of the GRIN1 gene and tetracycline-inducible expression of the GRIN2B gene (NMDA receptor, NR2B) (Homo sapiens, UniProt Q13224) (assay: Fluo-8 Ca2+ flux assay: reversal of Ro 25-6981-mediated suppression of the Ca2+ response to co-agonist (glutamate/glycine)). Settings: reversal of the Ro 25-6981 suppression of the Ca2+ response to co-agonist (glutamate/glycine).
Chain of HEK293 cells with stable expression of the GRIN1 gene and tetracycline-inducible expression of the GRIN2B gene (NMDA receptor, NR2B) (Q13224 27-1484, other chains not shown): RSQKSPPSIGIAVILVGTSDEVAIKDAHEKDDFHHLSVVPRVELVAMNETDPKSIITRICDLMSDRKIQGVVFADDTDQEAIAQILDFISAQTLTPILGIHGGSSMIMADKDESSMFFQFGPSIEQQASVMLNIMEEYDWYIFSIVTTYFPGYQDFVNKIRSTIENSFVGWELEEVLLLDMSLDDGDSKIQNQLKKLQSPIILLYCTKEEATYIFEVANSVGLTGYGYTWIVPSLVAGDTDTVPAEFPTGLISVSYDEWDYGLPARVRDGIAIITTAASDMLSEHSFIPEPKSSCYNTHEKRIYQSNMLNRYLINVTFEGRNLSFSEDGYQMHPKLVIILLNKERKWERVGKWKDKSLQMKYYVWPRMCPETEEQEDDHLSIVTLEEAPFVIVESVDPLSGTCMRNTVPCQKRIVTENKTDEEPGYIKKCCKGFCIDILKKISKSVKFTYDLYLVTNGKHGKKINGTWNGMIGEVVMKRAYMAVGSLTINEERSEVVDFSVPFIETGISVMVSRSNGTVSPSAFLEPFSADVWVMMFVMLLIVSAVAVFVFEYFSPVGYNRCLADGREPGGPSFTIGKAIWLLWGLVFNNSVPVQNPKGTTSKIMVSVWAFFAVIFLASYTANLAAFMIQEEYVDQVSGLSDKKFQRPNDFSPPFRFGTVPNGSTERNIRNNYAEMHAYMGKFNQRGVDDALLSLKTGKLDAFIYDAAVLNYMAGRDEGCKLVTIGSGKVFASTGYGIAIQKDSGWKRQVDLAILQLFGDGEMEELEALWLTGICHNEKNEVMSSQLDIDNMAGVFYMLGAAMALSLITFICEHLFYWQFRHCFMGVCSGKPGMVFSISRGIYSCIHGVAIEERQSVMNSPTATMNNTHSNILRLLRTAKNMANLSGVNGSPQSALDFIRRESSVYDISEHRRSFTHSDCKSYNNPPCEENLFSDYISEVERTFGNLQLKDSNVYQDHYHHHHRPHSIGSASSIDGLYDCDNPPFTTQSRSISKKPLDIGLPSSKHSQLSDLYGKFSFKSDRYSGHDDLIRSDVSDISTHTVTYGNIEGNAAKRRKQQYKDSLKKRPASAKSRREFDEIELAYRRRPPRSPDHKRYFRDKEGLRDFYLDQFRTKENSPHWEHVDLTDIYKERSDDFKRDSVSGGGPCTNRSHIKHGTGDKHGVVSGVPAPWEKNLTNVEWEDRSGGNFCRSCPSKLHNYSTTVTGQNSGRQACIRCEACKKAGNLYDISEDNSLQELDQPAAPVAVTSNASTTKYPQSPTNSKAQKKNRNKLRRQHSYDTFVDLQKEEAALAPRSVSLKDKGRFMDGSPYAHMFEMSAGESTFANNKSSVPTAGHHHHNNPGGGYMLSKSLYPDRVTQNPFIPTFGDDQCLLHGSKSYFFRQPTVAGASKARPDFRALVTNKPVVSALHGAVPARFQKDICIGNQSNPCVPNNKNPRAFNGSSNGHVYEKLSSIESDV
Format: cell-based
Note: test concentration or dose not given here.

Compound | Response Recovered (%)
O=C(Cn1ccc2c(c(-c3ccc(F)c(Cl)c3)cn2C2COC2)c1=O)N1CCC(F)C1 (centres unmarked) [Example 261, 3-(3-chloro-4-fluorophenyl)-5-(2-(3-fluoropyrrolidin-1-yl)-2-oxoethyl)-1-(oxetan-3-yl)-1H-pyrrolo[3,2-c]pyridin-4(5H)-one] | 29
Cc1nnc(-n2cc(-c3ccc(F)c(Cl)c3)c3c(=O)n(CC(=O)N4CCC(F)C4)ccc32)o1 (centres unmarked) [Example 264, 3-(3-chloro-4-fluorophenyl)-5-(2-(3-fluoropyrrolidin-1-yl)-2-oxoethyl)-1-(5-methyl-1,3,4-oxadiazol-2-yl)-1H-pyrrolo[3,2-c]pyridin-4(5H)-one] | 49
O=C(Cn1ccc2c(c(-c3ccc(F)c(C(F)(F)F)c3)cn2C2COC2)c1=O)N1CCC(F)C1 (centres unmarked) [Example 265, 3-(4-fluoro-3-(trifluoromethyl)phenyl)-5-(2-(3-fluoropyrrolidin-1-yl)-2-oxoethyl)-1-(oxetan-3-yl)-1H-pyrrolo[3,2-c]pyridin-4(5H)-one] | 61
Cn1cc(-n2cc(-c3ccc(F)c(Cl)c3)c3c(=O)n(CC(=O)N4CCC(F)C4)ccc32)nn1 (centres unmarked) [Example 267, 3-(3-chloro-4-fluorophenyl)-5-(2-(3-fluoropyrrolidin-1-yl)-2-oxoethyl)-1-(1-methyl-1H-1,2,3-triazol-4-yl)-1H-pyrrolo[3,2-c]pyridin-4(5H)-one] | 27
Cn1cnc(-n2cc(-c3ccc(F)c(C(F)(F)F)c3)c3c(=O)n(CC(=O)N4CC(C)(F)C4)ccc32)n1 [Example 268, 3-(4-fluoro-3-(trifluoromethyl)phenyl)-5-(2-(3-fluoro-3-methylazetidin-1-yl)-2-oxoethyl)-1-(1-methyl-1H-1,2,4-triazol-3-yl)-1H-pyrrolo[3,2-c]pyridin-4(5H)-one] | 52
Cn1cnc(-n2cc(-c3ccc(F)c(Cl)c3)c3c(=O)n(CC(=O)N4CC(C)(F)C4)ccc32)n1 [Example 269, 3-(3-chloro-4-fluorophenyl)-5-(2-(3-fluoro-3-methylazetidin-1-yl)-2-oxoethyl)-1-(1-methyl-1H-1,2,4-triazol-3-yl)-1H-pyrrolo[3,2-c]pyridin-4(5H)-one] | 130
Cn1cnc(-n2cc(-c3ccc(Cl)c(Cl)c3)c3c(=O)n(CC(=O)N4CC(C)(F)C4)ccc32)n1 [Example 270, 3-(3,4-dichlorophenyl)-5-(2-(3-fluoro-3-methylazetidin-1-yl)-2-oxoethyl)-1-(1-methyl-1H-1,2,4-triazol-3-yl)-1H-pyrrolo[3,2-c]pyridin-4(5H)-one] | 130
CCn1cc(-c2ccc(Cl)c(Cl)c2)c2c(=O)n(CC(=O)N3CCC(F)C3)ccc21 (centres unmarked) [Example 272, 3-(3,4-dichlorophenyl)-1-ethyl-5-(2-(3-fluoropyrrolidin-1-yl)-2-oxoethyl)-1H-pyrrolo[3,2-c]pyridin-4(5H)-one] | 33
CC1(F)CN(C(=O)Cn2ccc3c(c(-c4ccc(F)c(Cl)c4)cn3CC(F)(F)F)c2=O)C1 [Example 280, 3-(3-chloro-4-fluorophenyl)-5-(2-(3-fluoro-3-methylazetidin-1-yl)-2-oxoethyl)-1-(2,2,2-trifluoroethyl)-1H-pyrrolo[3,2-c]pyridin-4(5H)-one] | 73
CC1(F)CN(C(=O)Cn2ccc3c(c(-c4ccc(F)c(Cl)c4)cn3CCF)c2=O)C1 [Example 281, 3-(3-chloro-4-fluorophenyl)-5-(2-(3-fluoro-3-methylazetidin-1-yl)-2-oxoethyl)-1-(2-fluoroethyl)-1H-pyrrolo[3,2-c]pyridin-4(5H)-one] | 150
CC1(F)CN(C(=O)Cn2ccc3c(c(-c4ccc(F)c(Cl)c4)cn3C3COC3)c2=O)C1 [Example 282, 3-(3-chloro-4-fluorophenyl)-5-(2-(3-fluoro-3-methylazetidin-1-yl)-2-oxoethyl)-1-(oxetan-3-yl)-1,5-dihydro-4H-pyrrolo[3,2-c]pyridin-4-one] | 120
Cn1cc(-n2cc(-c3ccc(Cl)c(Cl)c3)c3c(=O)n(CC(=O)N4CCC(F)C4)ccc32)cn1 (centres unmarked) [Example 283, 3-(3,4-dichlorophenyl)-5-(2-(3-fluoropyrrolidin-1-yl)-2-oxoethyl)-1-(1-methyl-1H-pyrazol-4-yl)-1H-pyrrolo[3,2-c]pyridin-4(5H)-one] | 82

Continued, values first:

Response Recovered (%) | Compound
68 | O=C(Cn1ccc2c(c(-c3ccc(F)c(C(F)(F)F)c3)cn2CO)c1=O)N1CCC(F)C1 (centres unmarked) [Example 260, 3-(4-fluoro-3-(trifluoromethyl)phenyl)-5-(2-(3-fluoropyrrolidin-1-yl)-2-oxoethyl)-1-(hydroxymethyl)-1H-pyrrolo[3,2-c]pyridin-4(5H)-one]
44 | O=C(Cn1ccc2c(c(-c3ccc(F)c(C(F)(F)F)c3)cn2-c2ccnnc2)c1=O)N1CCC(F)C1 (centres unmarked) [Example 262, 3-(4-fluoro-3-(trifluoromethyl)-phenyl)-5-(2-(3-fluoropyrrolidin-1-yl)-2-oxoethyl)-1-(pyridazin-4-yl)-1H-pyrrolo[3,2-c]pyridin-4(5H)-one]
72 | Cc1nnc(-n2cc(-c3ccc(F)c(C(F)(F)F)c3)c3c(=O)n(CC(=O)N4CCC(F)C4)ccc32)o1 (centres unmarked) [Example 263, 3-(4-fluoro-3-(trifluoromethyl)phenyl)-5-(2-(3-fluoropyrrolidin-1-yl)-2-oxoethyl)-1-(5-methyl-1,3,4-oxadiazol-2-yl)-1H-pyrrolo[3,2-c]pyridin-4(5H)-one]
95 | Cn1cnc(-n2cc(-c3ccc(F)c(C(F)(F)F)c3)c3c(=O)n(CC(=O)N4CCC(F)C4)ccc32)n1 (centres unmarked) [Example 266, 3-(4-fluoro-3-(trifluoromethyl)phenyl)-5-(2-(3-fluoropyrrolidin-1-yl)-2-oxoethyl)-1-(1-methyl-1H-1,2,4-triazol-3-yl)-1H-pyrrolo[3,2-c]pyridin-4(5H)-one]
140 | Cn1cc(-n2cc(-c3ccc(F)c(Cl)c3)c3c(=O)n(CC(=O)N4CC(C)(F)C4)ccc32)nn1 [Example 271, 3-(3-chloro-4-fluorophenyl)-5-(2-(3-fluoro-3-methylazetidin-1-yl)-2-oxoethyl)-1-(1-methyl-1H-1,2,3-triazol-4-yl)-1H-pyrrolo[3,2-c]pyridin-4(5H)-one]
93 | O=C(Cn1ccc2c(c(-c3ccc(Cl)c(Cl)c3)cn2CCF)c1=O)N1CCC(F)C1 (centres unmarked) [Example 273, 3-(3,4-dichlorophenyl)-1-(2-fluoroethyl)-5-[2-(3-fluoropyrrolidin-1-yl)-2-oxoethyl]-1H,4H,5H-pyrrolo[3,2-c]pyridin-4-one]
100 | O=C(Cn1ccc2c(c(-c3ccc(Cl)c(Cl)c3)cn2CC(F)(F)F)c1=O)N1CCC(F)C1 (centres unmarked) [Example 275, 3-(3,4-dichlorophenyl)-5-(2-(3-fluoropyrrolidin-1-yl)-2-oxoethyl)-1-(2,2,2-trifluoroethyl)-1H-pyrrolo[3,2-c]pyridin-4(5H)-one]
71 | O=C(Cn1ccc2c(c(-c3ccc(F)c(C(F)(F)F)c3)cn2CC(F)F)c1=O)N1CCC(F)C1 (centres unmarked) [Example 279, 1-(2,2-difluoroethyl)-3-(4-fluoro-3-(trifluoromethyl)phenyl)-5-(2-(3-fluoropyrrolidin-1-yl)-2-oxoethyl)-1H-pyrrolo[3,2-c]pyridin-4(5H)-one]
